{
  "source": "patent US20070299136A1",
  "about": "“Crystalline and Amorphous Forms of Efaproxiral Sodium” (priority 2004, published 2007)",
  "assay_type_in_all_cases": "physicochemical",
  "key": {"[1]": {"assay": "Moisture balance / relative humidity exposure of efaproxiral sodium solid forms", "conditions": "for solid form after relative humidity is decreased to 5%: RH lowered to about 5% RH, sodium salt", "experimental": "Approximately 100 mg of efaproxiral sodium Form A was placed in a 20 mL glass vial. The vial was placed, uncapped, in an ambient temperature relative humidity jar at 75% relative humidity for approximately 24 hours.\nA quantity of Form A was placed on a weigh pan at about 0% relative humidity (RH). The RH was slowly raised to about 95% (adsorption) and was then lowered back to about 5% RH (desorption). The weight of the solid material was measured throughout. The results are depicted in FIG. 10. […] The resulting Form I loses slightly less than 4 moles of water as the humidity is further lowered to about 5% RH."}, "[2]": {"assay": "Solid form remaining after heating or drying (XRPD)", "experimental": "XRPD analyses were carried out on a Shimadzu XRD-6000 X-ray powder diffractometer using Cu Kα radiation. The instrument is equipped with a long fine focus X-ray tube. The tube voltage and amperage were set at […] and 40 mA, respectively. The divergence and scattering slits were set at 1° and the receiving slit was set at 0.15 mm. Diffracted radiation was detected by a […] scintillation detector. A theta-two theta continuous scan at 3′/min (0.4 sec/0.02° step) from 2.5 to 40 °2θ was used. A silicon standard was analyzed each day to check the instrument alignment. Samples were analyzed with an aluminum/silicon sample holder.\nEfaproxiral sodium Form A (1125.7 mg) was dissolved completely in […] of ethanol at 48° C. Acetone (7600 μL) was slowly added over a one minute period. Form G and Form Q formed in the reactor at this time. After 1 minute 50 seconds, a further 6250 μL of acetone was added and the reactor was allowed to cool to approximately 25° C. and then to approximately 15° C. The solid material in the reactor during this interval was Form Q. After approximately 10 minutes had passed from the initial addition of acetone, the resulting powdery white solid was collected by vacuum filtration, washed with 6000 μL acetone and dried in a 52° C. vacuum oven."}, "[3]": {"assay": "Thermogravimetric analysis (TGA) of solvated forms, ambient to 165° C.", "conditions": "for TGA weight loss: temperature raised from ambient to 165° C., sodium salt", "experimental": "A screen for polymorphs and solvates of efaproxiral sodium was performed using a variety of crystallization techniques. The resulting polymorphs were analyzed using a number of analytical techniques well known in the art for their ability to differentiate between different polymorphs, including thermogravimetric analysis (TGA), reflectance Fourier transform infrared (FTIR) spectroscopy (see EXAMPLE 2), and X-ray powder diffraction (XRPD) (see EXAMPLE 3). TGA is often very useful for distinguishing between different solid forms of a material because the temperature(s) at which a physical change in a material occurs is usually characteristic of the polymorph or solvate. X-Ray Powder Diffraction (XRPD) is a technique that detects long-range and short-range order in a crystalline material. IR spectroscopy also detects both intramolecular and intermolecular bonding in solids, and further provides information regarding the chemical composition of the crystalline material."}, "[4]": {"conditions": "Form A exposed to approximately 95% humidity"}},
  "data": [
    {"smiles": "Cc1cc(C)cc(NC(=O)Cc2ccc(OC(C)(C)C(=O)[O-])cc2)c1.[Na+]", "note": "[Form A, 2-[4-[2-[(3,5-dimethylphenyl)amino]-2-oxoethyl]phenoxy]-2-methyl-propionic acid, sodium salt]", "values": [
      {"measurement": "water uptake equivalent to weight gain", "setting": "[1]; [4]", "value": "approximately 7 moles of water/mole efaproxiral sodium"},
      {"measurement": "weight gain", "setting": "[1]; [4]", "value": "approximately 34%"},
      {"measurement": "water uptake equivalent to weight gain", "setting": "[1]; Form A incubated at high relative humidity", "value": "about 4 moles of water/mole efaproxiral sodium"},
      {"measurement": "weight gain", "setting": "[1]; Form A incubated at high relative humidity (75% RH, ambient temperature, approximately 24 hours)", "value": "approximately 20%"},
      {"measurement": "water gained (adsorption)", "setting": "[1]; RH raised from about 0% to about 85% RH, converts to Form I", "value": "about 4 moles of water/mole efaproxiral sodium"},
      {"measurement": "solid form after incubation at high relative humidity", "setting": "[1]; high relative humidity", "value": "Form I"},
      {"measurement": "further water gained (adsorption)", "setting": "[1]; humidity raised further to about 95% RH, converts to Form J", "value": "about 3 moles of water/mole efaproxiral sodium"}
    ]},
    {"smiles": "Cc1cc(C)cc(NC(=O)Cc2ccc(OC(C)(C)C(=O)[O-])cc2)c1.[Na+]", "note": "[Form F, 2-[4-[2-[(3,5-dimethylphenyl)amino]-2-oxoethyl]phenoxy]-2-methyl-propionic acid, sodium salt]", "values": [
      {"measurement": "removal of lattice solvent (methanol) by heating", "setting": "[2]; 80° C. for approximately 3 hours", "value": "can be removed"}
    ]},
    {"smiles": "Cc1cc(C)cc(NC(=O)Cc2ccc(OC(C)(C)C(=O)[O-])cc2)c1.[Na+]", "note": "[Form I, 2-[4-[2-[(3,5-dimethylphenyl)amino]-2-oxoethyl]phenoxy]-2-methyl-propionic acid, sodium salt]", "values": [
      {"measurement": "solid form after relative humidity is decreased to 5%", "setting": "[1]", "value": "amorphous efaproxiral sodium"},
      {"measurement": "water lost (desorption)", "setting": "[1]; humidity further lowered to about 5% RH", "value": "less than 4 moles of water"}
    ]},
    {"smiles": "Cc1cc(C)cc(NC(=O)Cc2ccc(OC(C)(C)C(=O)[O-])cc2)c1.[Na+]", "note": "[Form J, 2-[4-[2-[(3,5-dimethylphenyl)amino]-2-oxoethyl]phenoxy]-2-methyl-propionic acid, sodium salt]", "values": [
      {"measurement": "solid form after relative humidity is decreased to 5%", "setting": "[1]", "value": "Amorphous material"},
      {"measurement": "water lost (desorption)", "setting": "[1]; humidity lowered from about 95% to about 20% RH, converts to Form I", "value": "about 3 moles of water/mole efaproxiral sodium"}
    ]},
    {"smiles": "Cc1cc(C)cc(NC(=O)Cc2ccc(OC(C)(C)C(=O)[O-])cc2)c1.[Na+]", "note": "[Form P, 2-[4-[2-[(3,5-dimethylphenyl)amino]-2-oxoethyl]phenoxy]-2-methyl-propionic acid, sodium salt]", "values": [
      {"measurement": "solvent loss equivalent to TGA weight loss", "setting": "[3]; ambient to 165° C.", "value": "about 1 mole of ethanol per mole of efaproxiral sodium"},
      {"measurement": "TGA weight loss", "setting": "[3]", "value": "approximately 10.6%"},
      {"measurement": "solid form remaining after heating (XRPD)", "setting": "[2]; heated to 156° C.", "value": "Form A"}
    ]},
    {"smiles": "Cc1cc(C)cc(NC(=O)Cc2ccc(OC(C)(C)C(=O)[O-])cc2)c1.[Na+]", "note": "[Form Q, 2-[4-[2-[(3,5-dimethylphenyl)amino]-2-oxoethyl]phenoxy]-2-methyl-propionic acid, sodium salt]", "values": [
      {"measurement": "solvent loss equivalent to TGA weight loss", "setting": "[3]; ambient to about 165° C.", "value": "½ to about ⅓"},
      {"measurement": "TGA weight loss", "setting": "[3]", "value": "approximately 5.7%"},
      {"measurement": "solid form after drying", "setting": "[2]; 52° C. vacuum oven, 14 hours of drying", "value": "Form Q"},
      {"measurement": "solid form after drying", "setting": "[2]; 52° C. vacuum oven, 32 hours of drying", "value": "Form Q"},
      {"measurement": "solid form after drying", "setting": "[2]; dried at 70° C. under vacuum", "value": "Form B"},
      {"measurement": "solid form remaining after heating (XRPD)", "setting": "[2]; heated to about 165° C.", "value": "Form A"}
    ]}
  ]
}
